In patent US20160324770A1, “INTRATHECAL ADMINISTRATION, PREFERABLY INTRAVENTRICULAR, OF MTOR INHIBITORS FOR THE THERAPY OF SOME NEURODEGENERATIVE, NEUROINFLAMMATORY AND NEURO-ONCOLOGIC DISEASES” (priority 2012, published 2016):
Like-named read-outs stand apart in the source and are kept apart here.

Legend:
[1] = Blood and brain concentrations and metabolites (LC-MS) after intraventricular (intracerebral) administration by osmotic pump; assay type: in vivo; details: mice that had received intrathecal treatment
[2] = system: AD triple transgenic mouse (3xTg-AD); assay: Alzheimer's disease mouse model, intraventricular osmotic pumps; assay type: in vivo, 3xTg-AD mouse; details: local application, same dosage as in EAE mice
Source text: (§1) We carried out trials in mouse models exemplifying 3 families of neurological diseases: • EAE (Experimental Autoimmune Encephalomyelite, model of neuroinflammatory disease): SJL/j mice were immunized with two subcutaneous injections, performed 7 days apart, of proteolipid protein (PLP139-151), Freund's adjuvant and inactivated Mycobacterium tuberculosis. The disease severity was rated with a clinical score: 0=healthy; 1=tail weakness; 2=rear limb ataxia and/or paresis; 3=rear limb paralysis and/or front limb paresis; 4=tetraplegia; 5=state of agony or death • AD (Alzheimer's Disease, model of neurodegenerative disease): AD triple transgenic mouse (3xTg-AD) supplied by Jackson Laboratories (http://jaxmice.jax.org/strain/004807.html) Their memory was evaluated using the Passive Avoidance and Radial Maze tests; • TSC (Tuberous sclerosis complex, model of neuro-oncologic disease): TSC1 mouse with TSC1 gene within a flox cassette, supplied by Jackson Laboratories (http://jaxmice.jax.org/strain/005680.html)
We applied intraventricular catheters and everolimus-secreting osmotic pumps implanted subcutaneously on the back of 12 AD mice for 4 weeks. We infused a vehicle to an equal number of mice. We injected everolimus into 10 healthy mice and, finally, the vehicle into another 10. The appropriate pump was replaced after 4 weeks and kept in place for another 4. […]

[3] = system: EAE (Experimental Autoimmune Encephalomyelite) mice; assay: EAE mouse model, intraventricular pump from clinical score 1; assay type: in vivo, SJL/j mice
Source text: as §1
30 SJL/j mice were immunized and started developing the disease after 11 days. As they developed the neurological deficit and reached a score of 1, they were operated on and an Alzet 1004 pump containing everolimus or a vehicle was positioned. The purpose of this was to represent the usual clinical situation in which the patient goes to the doctor's on the occasion of the first attack. Generally speaking, a diagnosis is made and a high-dose steroid therapy is applied, with good regression of the symptoms, but in the majority of cases other attacks will occur and they will be followed by an increasingly less satisfactory regression, with a gradual increase in residual disability.
In our experimental set, the weight and clinical score of affected mice were monitored daily.

[4] = Blood and brain concentrations (LC-MS) in mice treated intraperitoneally for a week with graduated doses; assay type: in vivo, CD1 mice; details: for concentration at 1 week: CD1, mouse
Description: A quantitative analysis of everolimus in blood and tissue samples was performed with the isotopic dilution method using the LC-MS technique. The chromatographic system was the following: Agilent 1290 Infinity HPLC equipped with a binary pump and HiP Auto Sampler model G4226A. The injection volume was 2 μL, the analytical column used was a Phenomenex Kinetics PFP UHPLC column (Phenomenex, Milan, Italy) […], 1.7 μm, 100 Å, temperature controlled at 55° C. A gradient elution was performed using as solvent A: water with 5 mM ammonium formiate, solvent B: methanol with 0.1% formic acid. The elution profile was the following: solvent A 30%/solvent B 70% for 3 minutes, solvent A 1%/solvent B 99% from 3 to 6 minutes, at a flow velocity of 0.25 mL/min. This setup enabled an elution time of 2.5 minutes. Every injection was preceded by a cycle of washing the injector system with methanol.
Mass spectrometry was conducted using a Q-TOF MS detector model G6540A (Agilent, Germany) equipped with a Dual AJS ESI (electrospray ionization interface) system. The instrument parameters were the following: sheath gas flow: […], sheath gas temperature: 300° C., gas flow: 6 L/min, gas temperature: 300° C., nebulizer pressure: 35 psi, ion spray voltage: 5500 V.
Both everolimus and the isotopic internal standard were detected as ammonium adducts in the positive ion mode.
Everolimus was extracted from whole blood in 1 mL of a methanol solution containing 10% ammonium acetate in order to enable precipitation of most of the serum protein.
The internal standard used was isotopic 4d-2C^13-everolimus added to the extraction solution at a concentration of 200 ng/mL.
The blood samples were freeze-dried and subsequently extracted. The extraction process was carried out in a sonication bath for approx. 10 minutes to ensure complete haemolysis and release of the drug from the cell material.
The samples were centrifuged (10 minutes, 4000 rpm, 10° C.) and the supernatant was then separated from the pellet.
The solutions thus obtained were then purified by means of HybridSPE®-Phospholipid solid-phase extraction cartridges with a total volume of 1 ml (Sigma Aldrich, Milan) to eliminate the excess lipid material potentially present. The process was preliminarily validated both for everolimus and for the internal standard in solution and in matrices, providing a yield >98% w/v.
The process of extraction from brain samples, divided into right and left hemispheres, was similar to the one for whole blood. The tissue samples were weighed and subsequently freeze-dried. After freeze-drying the samples were finely chopped to facilitate subsequent extraction. 1 mL of the methanol solution was then added to 1% v/v of ammonium formiate with 200 ng/mL of internal standard. The samples were then subjected to 10 minutes of sonication and vortexed to ensure complete extraction of the drug. Then followed centrifugation (10 minutes, 4000 rpm, 10° C.) and the supernatant was separated from the pellet. As previously described, the solutions were purified by means of HybridSPE®-Phospholipid solid-phase extraction cartridges with a total volume of 1 ml (Sigma Aldrich, Milan) to eliminate the excess lipid material. The samples were then immediately submitted to LC-MS analysis.

[5] = cited from earlier work

CO[C@H]1C[C@@H]2CC[C@@H](C)[C@@](O)(O2)C(=O)C(=O)N2CCCC[C@H]2C(=O)O[C@H]([C@H](C)C[C@@H]2CC[C@@H](OCCO)[C@H](OC)C2)CC(=O)[C@H](C)/C=C(\C)[C@@H](O)[C@@H](OC)C(=O)[C@H](C)C[C@H](C)/C=C/C=C/C=C/1C [everolimus]
Blood concentration (detectable only in traces) [1]: < 1 mg/kg
Pharmacological activity observed in AD mice [2]: an increase in autophagy
Immunosuppressive effect of intrathecal administration ([3]; EAE mice): powerful local immunosuppressive effect
Severity of the following 2 attacks ([3]; intraventricular pump implanted at score 1, vs controls): not much milder than in the controls
Severity of the first attack ([3]; intraventricular pump implanted at score 1, vs vehicle): reduction in the severity of the first attack
Attacks after the third attack ([3]; intraventricular pump, controls continued to have recurring attacks): no longer manifested attacks
Clinical score after the third attack ([3]; score scale 0=healthy to 5=agony or death): 0
Body weight after the third attack ([3]; treated EAE mice, FIG. 3): fully recovered
concentration at 1 week ([4]; brain, intraperitoneal, 0.6125 mg/Kg, heading: Brain conc 1, one week, lowest of 3 dosages (C=0.6125 mg/Kg)): 46 ng/g
Level in the blood ([4]; all 3 dosages of the one-week study): did not reach measurable levels in the blood
concentration at 1 week ([4]; female, brain, left hemisphere (sx), ip, females, 0.6125 mg/kg i.p. for a week, normalized to weight of a hemisphere, read-out: Brain concentration, hemisphere sx (converted)): 48 ng/g
concentration at 1 week ([4]; female, brain, left hemisphere (sx), ip, females, 1.25 mg/kg i.p. for a week, normalized to weight of a hemisphere, read-out: Brain concentration, hemisphere sx (converted)): 80 ng/g
concentration at 1 week ([4]; female, brain, left hemisphere (sx), ip, females, 2.5 mg/kg i.p. for a week, normalized to weight of a hemisphere, read-out: Brain concentration, hemisphere sx (converted)): 152 ng/g
concentration at 1 week ([4]; female, brain, right hemisphere (dx), ip, females, 0.6125 mg/kg i.p. for a week, normalized to weight of a hemisphere, read-out: Brain concentration, hemisphere dx (converted)): 44 ng/g
concentration at 1 week ([4]; female, brain, right hemisphere (dx), ip, females, 1.25 mg/kg i.p. for a week, normalized to weight of a hemisphere, read-out: Brain concentration, hemisphere dx (converted)): 72 ng/g
concentration at 1 week ([4]; female, brain, right hemisphere (dx), ip, females, 2.5 mg/kg i.p. for a week, normalized to weight of a hemisphere, read-out: Brain concentration, hemisphere dx (converted)): 132 ng/g
concentration at 1 week ([4]; female, whole blood, ip, females, 0.6125 mg/kg intraperitoneally for a week, n = 2, read-out: Blood concentration): 15 ± 3 ng/mL
concentration at 1 week ([4]; female, whole blood, ip, females, 1.25 mg/kg intraperitoneally for a week, n = 2, read-out: Blood concentration): 25 ± 5 ng/mL
concentration at 1 week ([4]; female, whole blood, ip, females, 2.5 mg/kg intraperitoneally for a week, n = 2, read-out: Blood concentration): 46 ± 4 ng/mL
concentration at 1 week ([4]; male, brain, left hemisphere (sx), ip, males, 0.6125 mg/kg i.p. for a week, normalized to weight of a hemisphere, read-out: Brain concentration, hemisphere sx (converted)): 36 ng/g
concentration at 1 week ([4]; male, brain, left hemisphere (sx), ip, males, 1.25 mg/kg i.p. for a week, normalized to weight of a hemisphere, read-out: Brain concentration, hemisphere sx (converted)): 100 ng/g
concentration at 1 week ([4]; male, brain, left hemisphere (sx), ip, males, 2.5 mg/kg i.p. for a week, normalized to weight of a hemisphere, read-out: Brain concentration, hemisphere sx (converted)): 176 ng/g
concentration at 1 week ([4]; male, brain, right hemisphere (dx), ip, males, 0.6125 mg/kg i.p. for a week, normalized to weight of a hemisphere, read-out: Brain concentration, hemisphere dx (converted)): 56 ng/g
concentration at 1 week ([4]; male, brain, right hemisphere (dx), ip, males, 1.25 mg/kg i.p. for a week, normalized to weight of a hemisphere, read-out: Brain concentration, hemisphere dx (converted)): 148 ng/g
concentration at 1 week ([4]; male, brain, right hemisphere (dx), ip, males, 2.5 mg/kg i.p. for a week, normalized to weight of a hemisphere, read-out: Brain concentration, hemisphere dx (converted)): 208 ng/g
concentration at 1 week ([4]; male, whole blood, ip, males, 0.6125 mg/kg intraperitoneally for a week, n = 2, read-out: Blood concentration): 16 ± 4 ng/mL
concentration at 1 week ([4]; male, whole blood, ip, males, 1.25 mg/kg intraperitoneally for a week, n = 2, read-out: Blood concentration): 42 ± 4 ng/mL
concentration at 1 week ([4]; male, whole blood, ip, males, 2.5 mg/kg intraperitoneally for a week, n = 2, read-out: Blood concentration): 59 ± 3 ng/mL
Blood concentration (LC-MS) ([4]; mice treated with intraperitoneal administration): in the therapeutic range
half-life [5]: 28 to 32 h
